Measured values published in patent publication US20230285405A1, “Pharmaceuticals for Treating or Preventing Nidoviruses and Picornaviruses” (priority 2020, published 2023).
Like-named read-outs stand apart in the source and are kept apart here.

Columns and labels:
SARS-CoV-2 = test: microbe, parasite or virus in culture; format: cell-based, SARS-CoV-2 (nCoV/Washington/1/2020)
OC43 [1] = test: Dose-response analysis of OC43 infection; format: cell-based, human beta coronavirus OC43
Protocol: Dose-response analysis of OC43 infection was done similarly to the drug screening, except cells were seeded at a concentration of 5,000 cells per well and the media contained 2% BCS instead of 10% BCS. OC43 staining was performed 2 days after infection and analyzed similarly to what was described for the drug screening. A sigmoid fit was used to extract EC50 values using Matlab.

A549-mRuby cells = test: Drug screening: effect on cell growth (cell number day 4 / day 0); settings: 10 μM drug; for Growth_1: number of cells at day 4 divided by number of cells at day 0 / toxic_1: repeat #1; for Growth_2: number of cells at day 4 divided by number of cells at day 0 / toxic_2: repeat #2
How it was run: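 A549 cells carrying an H2B-mRuby reporter were infected with OC43 at MOI 0.3 for 1 h at 33° C, then given drug at 10 μM final. Cell numbers were counted by imaging at day 0 and again at day 4 after 4 days at 33° C, 5% CO2, with the screen run twice.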

SARS-CoV-2 3CLpro = target: T1, SARS-CoV-2 3CLpro (Severe acute respiratory syndrome coronavirus 2, UniProt P0DTD1); format: cell-based
T1 construct: the SARS-CoV-2 main protease (also known as 3CLpro, Mpro and nsp5); expressed in transfected cells; host or cells: 293T cells

OC43 [2] = test: Drug screening: OC43 nucleoprotein staining in infected A549-mRuby cells; format: cell-based, human beta coronavirus OC43; settings: for activity at 10 µM: Betacoronavirus 1, OC43, 96 h
How it was run: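 A549 cells expressing H2B-mRuby infected with OC43 at MOI 0.3 for 1 h at 33° C, then drugs added at 10 μM final and incubated 4 days at 33° C. Viral nucleoprotein immunostained and imaged; intensity normalized to cell number and no-drug controls (=100). Hits reduced staining >3 SD in both repeats without toxicity.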

[3] = A549-mRuby cells, staining 2 days after infection, read-out: EC50 OC43
[4] = 10 μM drug, MOI 0.3, 4 days, normalized to no-drug controls in the same plate, repeat #1
[5] = 10 μM drug, MOI 0.3, 4 days, normalized to no-drug controls in the same plate, repeat #2
[6] = Severe acute respiratory syndrome coronavirus 2; read-out: EC50 SARS2
[7] = Betacoronavirus 1, OC43, 48 h, read-out: EC50 OC43, A549-mRuby cells, staining 2 days after infection
[8] = 10 μM drug, MOI 0.3, 4 days, OC43 staining normalized to no-drug controls, mean of the two screen repeats, read-out: OC43_mean
[9] = 10 μM drug, MOI 0.3, 4 days, normalized to no-drug controls in the same plate, repeat #1, read-out: OC43_1: % staining of OC43 in screen repeat #1
[10] = 10 μM drug, MOI 0.3, 4 days, normalized to no-drug controls in the same plate, repeat #2, read-out: OC43_2: % staining of OC43 in screen repeat #2
[11] = 10 μM drug, MOI 0.3, 4 days, OC43 staining normalized to no-drug controls, mean of the two screen repeats
[12] = Severe acute respiratory syndrome coronavirus 2, read-out: EC50 SARS2

Row | Compound | Growth_1: number of cells at day 4 divided by number of cells at day 0 (A549-mRuby cells) | toxic_1 (A549-mRuby cells) | Growth_2: number of cells at day 4 divided by number of cells at day 0 (A549-mRuby cells) | toxic_2 (A549-mRuby cells) | 3CLpro activity: percentage of GFP-expressing cells (in words) (SARS-CoV-2 3CLpro) | OC43_1: % staining of OC43 in screen repeat #1 (OC43 [2]; [4]) | OC43_2: % staining of OC43 in screen repeat #2 (OC43 [2]; [5]) | hit_1 (OC43 [2]; 10 μM drug, repeat #1) | hit_2 (OC43 [2]; 10 μM drug, repeat #2) | EC50 (SARS-CoV-2; [6]) | EC50 (OC43 [1]; [7]) | activity at 10 µM (OC43 [2]; [8]) | activity at 10 µM (OC43 [2]; [9]) | activity at 10 µM (OC43 [2]; [10]) | other results
1 | Retapamulin | 4.3 | 0 | 4.1 | 0 | statistically significant decrease | 11.7% | 12.6% | 1 | 1 |  |  |  |  |  | EC50 (SARS-CoV-2; read-out: EC50 SARS2): 8 µM; EC50 (OC43 [1]; [3]): 4.5 µM; OC43_mean (OC43 [2]): 12.2%
2 | COc1cc2c(Oc3ccc4[nH]c(C)cc4c3F)ncnc2cc1OCCCN1CCCC1 [Cediranib (AZD2171), Cediranib] | 2.6 | 0 | 2.4 | 0 |  |  |  | 1 | 1 | 3.6 µM | 0.52 µM | 19% | 17.8% | 20.2% | EC50 (OC43 [1]; read-out: EC50 OC43, A549-mRuby cells, staining 2 days after infection): 0.5 µM
3 | Velpatasvir | 6.2 | 0 | 5.6 | 0 |  | 26.0% | 10.0% | 1 | 1 |  |  |  |  |  | EC50 (SARS-CoV-2; read-out: EC50 SARS2): > 10 µM; EC50 (OC43 [1]; [3]): 2 µM; OC43_mean (OC43 [2]; [11]): 18.0%
4 | COc1ccc2cc1Oc1ccc(cc1)C[C@H]1c3c(cc4c(c3Oc3cc5c(cc3OC)CCN(C)[C@@H]5C2)OCO4)CCN1C [Cepharanthine] | 4.3 | 0 | 4.7 | 0 |  |  |  | 1 | 1 | 0.13 µM | 0.77 µM | 20.3% | 28.5% | 12.1% | 
5 | CS(=O)(=O)CCNCc1ccc(-c2ccc3ncnc(Nc4ccc(OCc5cccc(F)c5)c(Cl)c4)c3c2)o1 [Lapatinib] | 3.8 |  | 4.4 |  | statistically significant decrease | 5.2% | 14.1% |  |  |  | 3.1 µM |  |  |  | EC50 (SARS-CoV-2; [12]): 1.6 µM; OC43_mean (OC43 [2]; [11]): 9.7%
6 | Cc1nc2c([nH]1)CCN(C(=O)c1ccc(NC(=O)c3ccccc3-c3ccccc3)cc1)c1ccccc1-2.O [Conivaptan HCl] | 4.2 | 0 | 4.7 | 0 | statistically significant decrease |  |  | 1 | 1 | 4 µM | 4.6 µM | 5.7% | 4.5% | 7% | 
7 | O.O=C(c1ccc(OCCN2CCCCC2)cc1)c1c(-c2ccc(O)cc2)sc2cc(O)ccc12 [Raloxifene HCl] | 5.0 | 0 | 5.2 | 0 |  |  |  | 1 | 1 | 3.8 µM | 2.7 µM | 11.7% | 9.4% | 14% | 
8 | CCN(CCCCOC(=O)c1ccc(OC)c(OC)c1)C(C)Cc1ccc(OC)cc1.O (stereo not shown) [Mebeverine Hydrochloride] | 5.2 | 0 | 3.9 | 0 |  |  |  | 1 | 1 | 10 µM | 5 µM | 20% | 20.1% | 19.9% | 
9 | N#Cc1ccc2[nH]cc(CCCCN3CCN(c4ccc5oc(C(N)=O)cc5c4)CC3)c2c1.O [Vilazodone HCl] | 3.5 | 0 | 3.9 | 0 | statistically significant decrease |  |  | 1 | 1 | 4.5 µM | 3.6 µM | 9.8% | 13% | 6.7% | 
10 | C[C@@H]1[C@H](O)[C@@H](C)/C=C/C=C/C=C/C=C/C=C/C=C/C=C/[C@H](O[C@@H]2O[C@H](C)[C@@H](O)[C@H](N)[C@@H]2O)C[C@@H]2O[C@](O)(C[C@@H](O)C[C@@H](O)[C@H](O)CC[C@@H](O)C[C@@H](O)CC(=O)O[C@H]1C)C[C@H](O)[C@H]2C(=O)O [Amphotericin B] | 4.3 | 0 | 5.8 | 0 |  | 1.5% | 11.8% | 1 | 1 |  |  |  |  |  | inhibition of SARS-CoV-2 infection (in words) (SARS-CoV-2): did not inhibit SARS-CoV-2 infection; EC50 (SARS-CoV-2; read-out: EC50 SARS2): > 1 µM; EC50 (OC43 [1]; [3]): 0.04 µM; OC43_mean (OC43 [2]; [11]): 6.6%
11 | Bafetinib [Bafetinib (INNO-406)] | 5.0 | 0 | 3.6 | 0 | statistically significant decrease | 17.2% | 9.6% | 1 | 1 |  |  |  |  |  | EC50 (SARS-CoV-2; read-out: EC50 SARS2): 2.2 µM; EC50 (OC43 [1]; [3]): 2.1 µM; OC43_mean (OC43 [2]; [11]): 13.4%
12 | CNCCC=C1c2ccccc2CCc2ccccc21.O [Nortriptyline hydrochloride] | 4.2 | 0 | 3.1 | 0 |  |  |  | 1 | 1 |  | 7.5 µM | 19.6% | 25.2% | 14% | EC50 (SARS-CoV-2; [12]): 3.2 µM
13 | CCCCOC(=O)c1ccc(O)cc1 [Butylparaben] | 3.3 | 0 | 3.6 | 0 |  |  |  | 1 | 1 | > 10 µM | 1.7 µM | 5.2% | 7% | 3.5% | 
14 | COC(=O)N[C@H](C(=O)N1CCC[C@H]1c1ncc(-c2ccc3c(c2)O[C@@H](c2ccccc2)n2c-3cc3cc(-c4cnc([C@@H]5CCCN5C(=O)[C@@H](NC(=O)OC)C(C)C)[nH]4)ccc32)[nH]1)C(C)C [Elbasvir] | 4.7 | 0 | 5.3 | 0 |  |  |  | 1 | 1 | > 10 µM | 0.17 µM | 20.1% | 18.8% | 21.4% | inhibition of SARS-CoV-2 infection (in words) (SARS-CoV-2): did not inhibit SARS-CoV-2 infection
15 | CCN(CC)CCOCCOC(=O)C1(c2ccccc2)CCCC1.O=C(O)CC(O)(CC(=O)O)C(=O)O [Pentoxyverine Citrate] | 5.0 | 0 | 5.7 | 0 |  |  |  | 1 | 1 | 3.6 µM | 5.5 µM | 9.3% | 10.8% | 7.7% | 
16 | CCCNCC(O)COc1ccccc1C(=O)CCc1ccccc1.O (stereo not shown) [Propafenone HCl] | 4.7 |  | 3.4 |  |  |  |  | 1 | 1 | 3.7 µM | 7.3 µM | 19.8% | 20.4% | 19.2% | 
